In patent publication US20240353410A1, “FRET ENZYMATIC SUBSTRATE AND USES THEREOF IN LIVER CANCER” (URTESTE S.A., priority 2021, published 2024):
Where “and” joins values, the source holds several entries; their conditions need not be identical. Equal entries are not always repeated. *1 amine or outer side, *2 acyl side, *3 side chain or, on linkers, in order; H or OH if unused. Where no end group is shown, it is not given here. [ ]: non-standard residue; d: D form. Benzoyl(5-NH,2-NO2) = O=C(c1cc(N[*:1])ccc1[N+](=O)[O-])[*:2]; 2Abz = Nc1ccccc1C(=O)O

Legend:
Format in all cases: biochemical, human
[1] = test system: proteolytic enzymes in urine from a subject suffering from liver cancer; experiment: Hydrolysis of the chromogenic substrate in urine from subjects with liver cancer (absorbance at 405 nm); conditions: for Results of absorbance analysis (increase in absorbance, 405 nm): 37° C., 60 minutes, pH 8.0
Description: (§1) The activity of the novel compounds according to the invention was studied in a group of 20 subjects diagnosed with liver cancer using the representative compound according to the invention. […] The remaining compounds according to the invention are characterized by the analogous mechanism of action. For this purpose, the representative compound according to the invention, ABZ^1-Lys^2-Ser^3-Ser^4-Asp^5-ANB^6-NH2, was dissolved in dimethyl sulfoxide (at a concentration of 0.5 mg/mL) and then 50 μL of the solution was mixed with 120 μL of a buffer (200 mM Tris-HCl, pH 8.0) and 80 μL of urine from a subject suffering from liver cancer. The measurement was performed on a 96-well plate designed for measuring absorbance and each sample was analysed in triplicate at the temperature of 37° C. The duration of the measurement was 60 minutes. During the measurement, the wavelength characteristic for the chromophore (ANB-NH2) being released was monitored at the wavelength 405 nm (range 380-430 nm).
The observed magnitude of increase in absorbance in time is different for each of the examined samples.
Such a result may be due to the difference in the activity as well as the amount of enzymes responsible for the enzymatic cleavage (proteolysis). […] The result indicates the […] of proteolytic enzymes characteristic of liver cancer.

[2] = test system: urine samples taken from healthy persons; experiment: Hydrolysis of the chromogenic substrate in urine from healthy subjects (absorbance at 405 nm); conditions: for Results of absorbance analysis (increase in absorbance, 405 nm): triplicate
[3] = test system: urine samples from patients with another neoplastic disease; experiment: Cleavage selectivity: substrate incubated with urine from patients with other cancers; conditions: for Measurement 1-3 (increase in absorbance): urine, triplicate
Description: as §1
Furthermore, the dependence of the cleavage selectivity of the substrate, i.e. the compound according to the invention, on the cancer being examined, was studied. […] This indicates cleavage selectivity of the compounds according to the invention, which makes them suitable for the specific detection of enzymatic activity specific to liver cancer and specific diagnosis of liver cancer.

[4] = test system: urine taken from a person diagnosed with liver cancer; experiment: RP HPLC analysis of substrate cleavage in urine with liver cancer; conditions: randomly selected urine from a person diagnosed with liver cancer
[5] = test system: enzyme in the studied material (urine); experiment: Dependence of substrate hydrolysis on reaction pH; conditions: FIG. 4
Description: Furthermore, measurements concerning the dependence of the proteolytic activity of the representative compound according to the invention on the reaction pH were performed.

Cleavage of the substrate in urine ([1]; all samples 1-20 from persons suffering from liver cancer): underwent cleavage | Results of absorbance analysis (increase in absorbance, 405 nm) ([1]; urine sample W1, liver cancer, triplicate): 0.03221 and 0.03351 and 0.02109 | Results of absorbance analysis (increase in absorbance, 405 nm) ([1]; urine sample W2, liver cancer, triplicate): 0.02276 and 0.02037 and 0.02884 | Results of absorbance analysis (increase in absorbance, 405 nm) ([1]; urine sample W4, liver cancer, triplicate): 0.02897 and 0.02718 and 0.02812 | Results of absorbance analysis (increase in absorbance, 405 nm) ([1]; urine sample W5, liver cancer, triplicate): 0.171 and 0.1445 and 0.1684 | Results of absorbance analysis (increase in absorbance, 405 nm) ([1]; urine sample W6, liver cancer, triplicate): 0.02035 and 0.01966 and 0.02513 | Results of absorbance analysis (increase in absorbance, 405 nm) ([1]; urine sample W8, liver cancer, triplicate): 0.0186 and 0.0199 and 0.01818 | Results of absorbance analysis (increase in absorbance, 405 nm) ([1]; urine sample W9, liver cancer, triplicate): 0.0313 and 0.02635 and 0.0275 | Results of absorbance analysis (increase in absorbance, 405 nm) ([1]; urine sample W10, liver cancer, triplicate): 0.04583 and 0.03322 and 0.03755 | Results of absorbance analysis (increase in absorbance, 405 nm) ([1]; urine sample W11, liver cancer, triplicate): 0.02091 and 0.01156 and 0.01536 | Results of absorbance analysis (increase in absorbance, 405 nm) ([1]; urine sample W12, liver cancer, triplicate): 0.03055 and 0.02126 and 0.0183 | Results of absorbance analysis (increase in absorbance, 405 nm) ([1]; urine sample W13, liver cancer, triplicate): 0.01583 and 0.01383 and 0.01431 | Results of absorbance analysis (increase in absorbance, 405 nm) ([1]; urine sample W14, liver cancer, triplicate): 0.00394 and 0.00525 and 0.00441 | Results of absorbance analysis (increase in absorbance, 405 nm) ([1]; urine sample W15, liver cancer, triplicate): 0.01622 and 0.01718 and 0.01233 | Results of absorbance analysis (increase in absorbance, 405 nm) ([1]; urine sample W16, liver cancer, triplicate): 0.01265 and 0.01251 and 0.00722 | Results of absorbance analysis (increase in absorbance, 405 nm) ([1]; urine sample W17, liver cancer, triplicate): 0.0012 and 0.0018 and 0.0015 | Results of absorbance analysis (increase in absorbance, 405 nm) ([1]; urine sample W18, liver cancer, triplicate): 0.01937 and 0.01539 and 0.01955 | Results of absorbance analysis (increase in absorbance, 405 nm) ([1]; urine sample W19, liver cancer, triplicate): 0.0091 and 0.0093 and 0.0089 | Results of absorbance analysis (increase in absorbance, 405 nm) ([1]; urine sample W20, liver cancer, triplicate): 0.1528 and 0.1867 and 0.1909 | Measurement 1-3 (increase in absorbance) ([1]; urine, cancer location Liver, selectivity test of Table 2, triplicate): 0.0067 and 0.0072 and 0.0056 | Dependence of hydrolysis level on pH [5]: maximum activity at alkaline pH
Substance: ABZ-Lys-Ser-Ser-Asp-ANB-NH2 ([2Abz]KSSD-{Benzoyl(5-NH,2-NO2)-NH2}) [chromogenic/FRET peptide substrate; ABZ is 2-aminobenzoic acid, ANB-NH2 is amide of 5-amino-2-nitrobenzoic acid]
Results of absorbance analysis (increase in absorbance, 405 nm) ([2]; urine sample 21, healthy person): 0.000000 | Results of absorbance analysis (increase in absorbance, 405 nm) ([2]; urine sample 22, healthy person): 0.000000 | Results of absorbance analysis (increase in absorbance, 405 nm) ([2]; urine sample 23, healthy person): 0.000000 | Results of absorbance analysis (increase in absorbance, 405 nm) ([2]; urine sample 24, healthy person): 0.000000 | Results of absorbance analysis (increase in absorbance, 405 nm) ([2]; urine sample 25, healthy person): 0.000000 | Results of absorbance analysis (increase in absorbance, 405 nm) ([2]; urine sample 26, healthy person): 0.000000 | Results of absorbance analysis (increase in absorbance, 405 nm) ([2]; urine sample 27, healthy person): 0.000000 | Results of absorbance analysis (increase in absorbance, 405 nm) ([2]; urine sample 28, healthy person): 0.000000 | Results of absorbance analysis (increase in absorbance, 405 nm) ([2]; urine sample 29, healthy person): 0.000000 | Results of absorbance analysis (increase in absorbance, 405 nm) ([2]; urine sample 30, healthy person): 0.000000 | Results of absorbance analysis (increase in absorbance, 405 nm) ([2]; urine sample 31, healthy person): 0.000000 | Results of absorbance analysis (increase in absorbance, 405 nm) ([2]; urine sample 32, healthy person): 0.000000 | Results of absorbance analysis (increase in absorbance, 405 nm) ([2]; urine sample 33, healthy person): 0.000000 | Results of absorbance analysis (increase in absorbance, 405 nm) ([2]; urine sample 34, healthy person): 0.000000 | Results of absorbance analysis (increase in absorbance, 405 nm) ([2]; urine sample 35, healthy person): 0.000000 | Results of absorbance analysis (increase in absorbance, 405 nm) ([2]; urine sample 36, healthy person): 0.000000 | Results of absorbance analysis (increase in absorbance, 405 nm) ([2]; urine sample 37, healthy person): 0.000000 | Results of absorbance analysis (increase in absorbance, 405 nm) ([2]; urine sample 38, healthy person): 0.000000 | Results of absorbance analysis (increase in absorbance, 405 nm) ([2]; urine sample 39, healthy person): 0.000000 | Results of absorbance analysis (increase in absorbance, 405 nm) ([2]; urine sample 40, healthy person): 0.000000 | Increase in absorbance / hydrolysis in urine ([2]; urine samples 21 to 40 from healthy persons): does not lead to an increase in absorbance | Cleavage / increase in absorbance in urine of other cancers ([3]; testicular, intestine, kidney, prostate, pancreatic, bile duct, lung, ovarian and rectum cancer): is not subject to cleavage | Measurement 1-3 (increase in absorbance) ([3]; cancer location Intestine): 0 | Measurement 1-3 (increase in absorbance) ([3]; cancer location Kidney): 0 | Measurement 1-3 (increase in absorbance) ([3]; cancer location Lung): 0 | Measurement 1-3 (increase in absorbance) ([3]; cancer location Ovary): 0 | Measurement 1-3 (increase in absorbance) ([3]; cancer location Pancreas): 0 | Measurement 1-3 (increase in absorbance) ([3]; cancer location Prostate): 0 | Measurement 1-3 (increase in absorbance) ([3]; cancer location Rectum): 0 | Measurement 1-3 (increase in absorbance) ([3]; cancer location Testicle): 0 | Measurement 1-3 (increase in absorbance) ([3]; cancer location bile ducts): 0 | Cleavage products of the substrate (RP HPLC) [4]: cleaves into the peptide fragment ABZ-Lys-Ser-Ser-Asp-OH and the chromophore group of the compound (ANB-NH2)
